Columns and labels:
Format in all cases: cell-based, human
HeLa cells = test: Cell viability of HeLa cells with siRNA of control, BRCA1 or RAD51 (drug sensitivity test, Presto Blue; Example 1); conditions: siRNA of BRCA1 or RAD51, drug added 24 h later, 96 h culture, FIG. 1B/1C
Description: HeLa cells (human cervical cancer cell line) were purchased from ATCC (Manassas, VA, USA). HeLa cells were cultured in DMEM medium (Nissui Pharmaceutical Co., Ltd., Tokyo, Japan) supplemented with 8% Fetal Bovine Serum (FBS) (Biowest Inc., Nuaille, France) and 3% L-glutamine at 37° C. in the presence of 5% CO2.
(§1) A stock solution of Nicaraven was prepared by dissolving Nicaraven in DMEM medium at a final concentration of 40 mM and sterilizing the solution through a filter. Olaparib (Adooq Bioscience, Irvine, CA, USA) was prepared as a stock solution of Olaparib in DMSO (FUJIFILM Wako Pure Chemical Corporation, Osaka, Japan) at a final concentration of 50 mM. […]
HeLa cell suspension adjusted to 5000 cells/ml was seeded in a 96 well plate at 100 μl/well, and the next day, siRNA was introduced, followed by addition of Olaparib or Nicaraven. One hundred twenty hours after gene introduction and Olaparib addition, Hela cells were replaced in a medium to which Presto Blue assay (Thermo-Fisher Scientific, Waltham, MA, USA) had been added so as to have a final concentration of 5%, followed by reaction in the presence of 5% CO2 at 37° C. for 1 hour, and then fluorescence was measured under conditions of an excitation wavelength of 520 nm and a fluorescence wavelength of 580 to 640 nm using GloMax (registered trademark) Explorer Multimode Microplate Reader (Promega, Madison, WI, USA). […]

[1] = system: homologous recombination activity in HeLa cells; test: Homologous recombination activity (ASHRA, knock-in efficiency by quantitative PCR; Example 2); conditions: control cells and cells with BRCA1 and RAD51 expression suppressed; 48 h culture with drug; FIG. 2B
From the text: FIG. 5 illustrates an outline of a method for measuring homologous recombination repair (HR) activity (Assay for site-specific HR activity (ASHRA)) performed in Examples. In this method, a CRISPR/Cas9 system used for genome editing as a site-specific DNA cleaving enzyme is used to create a site-specific DNA double strand break in a target endogenous gene. Then, a fusion gene of a reporter and a target gene is generated by HR between a DNA fragment as a substrate for HR containing the reporter and the target endogenous gene. The production efficiency of the fusion gene of a reporter and a target gene is quantified as the HR repair activity of cell in the cell. For the method for detecting a fusion gene, flow cytometry, Western blotting, quantitative PCR, or the like can be used while changing the reporter. Step 1: Introduce Cas9/guide RNA expression vector and donor vector into cells. […] Step 4: Detecting knock-in efficiency of marker ((1) Western blotting, (2) flow cytometry, (3) quantitative PCR). […]
HeLa cells were seeded on a 3.5 cm dish, and the next day, siRNA was introduced. […] Genome quantitative PCR was performed using Go Taq qPCR master mix (Promega, Madison, WI, USA), measurement was done using CFX96 Touch Real-time PCR detection system (BioRad, Hercules, CA, USA), and knock-in efficiency was calculated by ΔΔCt method. […]

[2] = system: γ-H2AX, a marker of DNA double-strand break, in HeLa cells; test: γ-H2AX intranuclear foci after X-ray irradiation (DNA double-strand break repair, immunostaining; Example 3); conditions: drug 30 min before 1.5 Gy X-ray, 24 h after irradiation, FIG. 3
Description: After cell seeding, Nicaraven was added. After 30 minutes, the cells were irradiated with 1.5 Gy of X-ray, and after 2 hours and 24 hours, the cells were fixed and immunostained with an anti-γ-H2AX antibody.
Cells in which five or more γ-H2AX intranuclear foci were observed were counted, and the ratio was calculated and represented in a graph. Respective cells in which less than 5, 5 or more and less than 10, 10 or more and less than 20, and 20 or more γ-H2AX intranuclear foci were observed were counted, and the ratio was calculated and represented in a graph (FIG. 3D).

KYSE270 cells = test: Cell viability of KYSE270 esophageal cancer cells with siRNA of control or RAD51 (Example 5); conditions: siRNA of RAD51, drug added 24 h later, 5 days culture, FIG. 6B
Description: KYSE270 cells and KYSE30 cells (human esophageal squamous cell carcinoma cell line) were purchased from JCRB Cell Bank, National Institutes of Biomedical Innovation, Health and Nutrition (Osaka, Japan). KYSE270 cells and KYSE30 cells were cultured in a medium in which RPMI1640 and Ham's F12 medium (both of which were manufactured by FUJIFILM Wako Pure Chemical Corporation, Osaka, Japan) were mixed in equal amounts and 5% FBS was added at 37° C. in the presence of 5% CO2.
as §1
FIG. 6A. Protocol of an experiment in which cell viability under Olaparib, Nicaraven or Edaravone treatment on cells having reduced homologous recombination activity was analyzed. siRNA of control or RAD51 was introduced into esophageal cancer cells KYSE270 cells, and 24 hours later, either Olaparib or Nicaraven was added. After 5 days of culture, cell viability was measured.

KYSE30 cells = test: Cell viability of KYSE30 esophageal cancer cells with siRNA of RAD51 (Example 5); conditions: siRNA of RAD51, drug added 24 h later, compared with the control, FIG. 7

For `CC(CNC(=O)c1cccnc1)NC(=O)c1cccnc1` (centres unmarked) [Nicaraven], the “cell viability when expression of BRCA1 and RAD51 was suppressed” value (HeLa cells) was “cell viability further decreased”, the homologous recombination activity [1] was “did not affect the homologous recombination ability” and the “DNA damage remaining (γ-H2AX intranuclear foci), RAD51-suppressed versus control” value ([2]; RAD51 expression suppressed) was “DNA damage remained more remarkably in the state in which the expression of RAD51 was suppressed”. For the same molecule, the “DNA damage remaining (γ-H2AX intranuclear foci), control and RAD51-suppressed cells” value ([2]; control and RAD51-suppressed) was “caused DNA damage to remain in both the control and the state in which the expression of RAD51 was suppressed”, the “cell viability when expression of RAD51 is suppressed” value (KYSE270 cells) was “cell viability further decreased” and the “cell viability in cells in which expression of RAD51 was suppressed” value (KYSE30 cells) was “cell viability decreased in cells in which expression of RAD51 was suppressed, as compared with the control”.
`O=C(c1cc(Cc2n[nH]c(=O)c3ccccc23)ccc1F)N1CCN(C(=O)C2CC2)CC1` [Olaparib, reference compound] was tested, and the “cell viability when expression of BRCA1 and RAD51 was suppressed” value (HeLa cells) was “decreased cell viability in cells in which expression of BRCA1 and RAD51 was suppressed, as compared with the control” and the “cell viability when expression of RAD51 is suppressed” value (KYSE270 cells) was “decreased cell viability in cells in which expression of RAD51 was suppressed, as compared with the control”.

From US20260315451A1, “MEDICINE FOR TREATING CANCER” (SCIENCE TECHNOLOGY INTERACT CO., LTD., priority 2022, published 2026)
